US10512642B2, “Therapeutic targeting of myeloproliferative neoplasms by DUSP1 inhibition” (Children's Hospital Medical Center, priority 2015, dated 2019)

Legend:
JAK2 = details: peripheral neuropathy and Wernicke encephalopathy; termination from phase III clinical trials; cited from earlier work
MPN cells = assay: Colony forming unit (CFU) assay of MPN cells; type: cell-based, mouse; details: in vitro CFU assay
Experimental: To test this, hematopoietic CFU assays were performed using mouse bone marrow-derived Kit+ cells transduced with retroviruses expressing, pMSCV-Ires-GFP (vector), Jak2-V617F-Ires-GFP, Mpl-W515L-ires-GFP, and CSF3R-T618IIres-GFP.
Given the limitations of in vitro assays, performed in vivo experiments were then performed using bone marrow transduction transplantation assays. For in vivo analysis, mice were transplanted with 80-100 thousand bone marrow Kit^+ cells expressing Jak2-V617F-ires-GFP, CSF3R-T618I-Ires-GFP and MSCV-Ires-GFP (vector control). Mice received […] developed fatal MPD with a disease latency of 4-6 months.

BCR/ABL induced leukemia = assay: Retroviral bone marrow transduction transplantation CML model; details: mouse model of CML
Experimental: Kit^+ cells from mouse bone marrow were transduced with BCR/ABL-IRES-YFP retroviruses. Five thousand GFP^+ cells were plated for in vitro CFU assays, and 40,000 YFP^+ cells were transplanted for in vivo leukemia development in lethally irradiated C57Bl6 mice. […] Data shown are from two independent transplant experiments (n p=0.017). Below, Bar graphs illustrating leukemic burden in mice transplanted with BCR-ABL Kit^+ cells, measured by the level of YFP in peripheral blood as a surrogate for BCR/ABL expression.
For in vivo analysis, mice were transplanted with 40 thousand bone marrow Kit^+ cells expressing BCR/ABL and YFP.
To test c-Fos and Dusp1 as potential drug targets, in vitro and in vivo experiments were performed using small molecule inhibitors of c-Fos and Dusp1 (FIG. 5A). […] Representative data shown are the mean colony number from two independent experiments±S.D. (*=p<0.01, **=p<0.002). […] Data shown are from two independent transplant experiments (n=12; p=0.0285).
Next, in vivo efficacy was examined using a retroviral bone marrow transduction transplantation CML model.

K562 cells = assay: Survival of K562 cells treated with imatinib +/- cytokines; type: cell-based, human
Experimental: (J) Real-time qPCR analysis illustrating expression of c-FOS, DUSP1, and ZFP36 in primary CML patient peripheral blood mononuclear cells normalized to CD34+ cells from normal volunteers (black bar). Four chronic phase (CP) and three blast crisis (BC) patients were analyzed.
BaF3 cells were generated with tetracycline-inducible expression of BCR/ABL (BaF3-LTBA, FIG. 3A), as well as those with constitutive BCR/ABL expression (BAF3-BCR/ABL, FIG. 3B).

SMILES: Cc1cc(Nc2nc(N[C@@H](C)c3ncc(F)cn3)ncc2Cl)n[nH]1 [AZD1480]
- neurological toxicity (JAK2): profound neurological toxicities

SMILES: O=C1/C(=C/c2ccccc2)C(NC2CCCCC2)c2ccccc21 (stereo not drawn) [BCI, (E)-2-benzylidene-3-(cyclohexylamino)-2,3-dihydro-1H-inden-1-one]
- targeting of MPN cells (MPN cells): selective targeting of MPN cells
- bioavailability (BCR/ABL induced leukemia): bioavailable
- target inhibition in vivo (BCR/ABL induced leukemia): inhibits its designated target

SMILES: Cc1cnc(Nc2ccc(OCCN3CCCC3)cc2)nc1Nc1cccc(S(=O)(=O)NC(C)(C)C)c1 [fedratinib]
- neurological toxicity (JAK2): profound neurological toxicities

SMILES: Cc1ccc(NC(=O)c2ccc(CN3CCN(C)CC3)cc2)cc1Nc1nccc(-c2cccnc2)n1 [imatinib]
- effect of erythropoietin on imatinib response (K562 cells): erythropoietin conferred imatinib resistance
